From publication PMC8079283 (The Journal of Biological Chemistry, 2021)

Biological target: T1, NUDT15 (Homo sapiens, UniProt Q9NV35)
T1 sequence (Q9NV35 1-164): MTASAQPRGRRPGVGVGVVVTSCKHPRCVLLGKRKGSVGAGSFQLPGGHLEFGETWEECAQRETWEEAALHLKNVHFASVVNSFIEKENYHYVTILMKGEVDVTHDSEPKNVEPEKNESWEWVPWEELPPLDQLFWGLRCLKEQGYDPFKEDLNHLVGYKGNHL
Test: X-ray crystal structure
Type: biochemical

C[C@@H]1CN(C(=O)c2ccc3c(ccn3C)c2)CCN1S(=O)(=O)c1ccc2[nH]c(=O)oc2c1 [compound 6, (R)-6-((2-methyl-4-(1-methyl-1H-indole-5-carbonyl)piperazin-1-yl)sulfonyl)benzo[d]oxazol-2(3H)-one]
Ki: 10.2 ± 0.9 nM
